In article PMC7887271, “Fast acting allosteric phosphofructokinase inhibitors block trypanosome glycolysis and cure acute African trypanosomiasis in mice” (Nature Communications, 2021):
Several values for one entry are separate records, joined by “and”; a condition that tells them apart may be missing. Equal values may be shown once. Read-outs that look alike come from different tables or passages of the source.

How the values were obtained:
[1] = biological target: T1, T. brucei phosphofructokinase (TbPFK) (Trypanosoma brucei brucei, UniProt O15648); assay: ADP-Glo assay for measuring PFK inhibition; assay type: biochemical; conditions: for RLU, avg / RLU, individual replicates: SuppFig1
T1 construct: made in house; host or cells: Escherichia coli C41 (pET28a, codon optimised gene)
T1 sequence (O15648 1-487): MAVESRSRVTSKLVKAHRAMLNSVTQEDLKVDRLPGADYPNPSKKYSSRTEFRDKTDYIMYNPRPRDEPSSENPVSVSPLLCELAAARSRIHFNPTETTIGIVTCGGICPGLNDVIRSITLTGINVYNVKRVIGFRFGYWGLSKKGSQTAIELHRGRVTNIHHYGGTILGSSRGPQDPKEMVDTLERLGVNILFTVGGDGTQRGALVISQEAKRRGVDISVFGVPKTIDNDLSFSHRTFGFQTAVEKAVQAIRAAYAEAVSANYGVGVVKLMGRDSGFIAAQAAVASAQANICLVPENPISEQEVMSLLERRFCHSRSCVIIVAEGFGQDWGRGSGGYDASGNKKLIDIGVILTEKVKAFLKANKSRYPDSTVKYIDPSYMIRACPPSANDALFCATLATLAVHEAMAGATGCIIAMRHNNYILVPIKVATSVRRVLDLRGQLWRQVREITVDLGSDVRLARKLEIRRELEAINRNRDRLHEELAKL
Experimental: Parasite enzyme kinetic data were measured using N-terminally His6-tagged TbPFK expressed in Escherichia coli C41 cells, using a codon optimised gene inserted in a pET28a vector (Supplementary Methods 1). Recombinant human PFKs were expressed in PFK-deficient Saccharomyces cerevisiae. PFK enzyme inhibition was measured using an ADP-Glo^TM assay (Promega) in a 96-well plate format (Supplementary Methods 2.1), using a Spectramax© M5 Multimode Plate Reader to measure luminescence values which were converted to ADP concentrations. IC50 values were determined using a sigmoidal curve fitting algorithm in Kaleidagraph 4 (Supplementary Fig. 1). Mode of action studies were carried out using a linked enzyme assay coupling the forward reaction of TbPFK to the M1 isoform of human pyruvate kinase followed by lactate dehydrogenase. The change in UV absorbance at 340 nm resulting from the conversion of NADH to NAD^+ was measured at 25 °C in ‘kinetic mode’ on a Spectramax© M5 Multimode plate reader. Initial velocities were plotted against substrate concentration to give curves showing non-competitive inhibition (Supplementary Fig. 2). An alternative linked enzyme assay was developed to control for the potential inhibitory activity of ATP on human PFK (Supplementary Methods 2.3).
The ADP-Glo™ end-point assay kit manufactured by Promega (cat. No. V9102) was used to measure ADP produced in the phosphofructokinase reaction:
Following this kinase reaction, the addition of a reagent results in any unused background ATP being removed and the reaction is sequestered. A second reagent is then added to convert the remaining ADP to ATP which is coupled to the luciferase/luciferin reaction to produce light. ‘Ultrapure’ ATP and ADP from Promega were used to reduce background noise. All reagents additional to those provided in the Promega ADP-Glo™ kit were purchased from Sigma-Aldrich.
The assay buffer comprised 50 mM triethanolamine (TEA), 10 mM MgCl2, 5 mM KCl, 0.1% w/v bovine serum albumin (BSA), 0.005% Tween-20, 1% DMSO, pH 7.4. A 3-fold serial dilution of 250x inhibitor stocks was carried out in 100% DMSO. 2 µl of these dilutions was added to 198 µl assay buffer and mixed well using a multichannel pipette. […] Concentration ranges of inhibitor compounds were 40 - 0.006 µM (final concentration, 1% DMSO). The PFK reaction in the presence of inhibitor was carried out using 10 µl of 1 µg/ml PFK (final concentration 0.4 µg/ml) which was added to 10 µl of the 1% DMSO inhibitor compound serial dilutions in a white, non-binding 96-well plate (Greiner BioOne 655904). CTCB-001 was used as a positive control at a final concentration of 5 µM. Assay buffer containing 1% DMSO was added instead of inhibitor compound for the negative control. The protein/inhibitor mixture was incubated for 10 minutes at room temperature (RT). The kinase reaction was started by adding a 5x ATP/F6P stock in assay buffer (final concentrations 0.5 mM F6P and 0.1 mM ATP). Plates were then sealed, centrifuged at 560 x g for 30 seconds and incubated at RT for 30 minutes. 25 µl of ‘ADP-Glo™ Reagent’ was then added to each well, mixed using a multichannel pipette and incubated at room temperature for 40 minutes. 50 µl of ‘Kinase Detection Reagent’ was added and incubated for 50 minutes at RT. The luminescence was recorded using a Spectramax© M5 Multi-mode Plate Reader (Molecular Devices) in single-point mode, with an integration time of 750 milliseconds. The luminescence values were converted to ADP concentration using a standard calibration curve for ADP. The resulting ADP concentrations were plotted as a function of inhibitor compound concentration using Kaleidagraph 4.0 software. The data were analysed using non-linear regression and a sigmoidal curve was fitted (Supplementary Figure 1) to determine the IC50. Kaleidagraph 4.0 uses the Levenberg-Marquardt algorithm in an iterative procedure to fit non-linear curves. […] The slope of the curve at the midpoint (m4) was set to 1.

HepG2 cells = assay: HepG2 cytotoxicity assay; assay type: cell-based, human; conditions: for Selectivity: EC50 HepG2 divided by EC50 T. b. brucei parasite killing; for EC50: Homo sapiens, HepG2, 72 h, CellTitreGlo
Experimental: (§1) A HepG2 cytotoxicity assay was used to determine a cellular selectivity index. HepG2 cells were seeded into 96-well plates in EMEM medium. Compounds were assessed for their effect upon cellular viability (Supplementary Methods 5.1). Inhibition of CYP450 was determined using kits from BD Biosciences (Supplementary Methods 5.2). Metabolic stability was determined using mouse […] tested at a single concentration of 5 µM. Plasma protein binding was determined using mouse and human plasma at a single concentration of 10 µM (Supplementary Methods 5.4). All PK studies in mice were carried out by Pharmidex (Supplementary Methods 6.1).
To determine a cellular selectivity index, a HepG2 Cytotoxicity Assay was used. HepG2 cells (a human hepatocyte carcinoma cell line) were seeded into 96 well plates in EMEM media. Compounds were assessed for their effect upon cellular viability (6 point dose response curves). After 72h the numbers of viable cells were detected using Promega CellTitreGlo reagent to measure ATP using the luciferase/luciferin detection system. The selectivity index is calculated as the EC50 in the HepG2 assay divided by the EC50 determined in the T. b. brucei parasite killing assay.

[2] = Plasma protein binding, mouse plasma; assay type: in vitro ADME
Experimental: as §1
Compounds were tested for protein binding using mouse and human plasma at a single concentration of 10 µM and measured by equilibrium dialysis between plasma and buffer. The amount of parent was determined on both sides of the membrane after incubating for 4 hours at 37 °C. The samples were crashed with acetonitrile and put through protein precipitation plates. The eluent was analysed by LC/MS or LC/MS/MS. Output was percentage bound.

[3] = source data for Fig. 2 and Table 1, read-out: Average IC50
[4] = source data, read-out: IC50 (µM), single dated measurement
[5] = ADP-Glo, mean ± SD, read-out: IC50 (µM) for inhibition of T. brucei phosphofructokinase (PFK IC50)
[6] = 10 µM, equilibrium dialysis, read-out: Mouse plasma protein binding fu(%)
[7] = percentage bound, read-out: mouse plasma protein binding value (converted)

| Structure (SMILES) | IC50 [1, 3] | IC50 [1, 4] | IC50 [1, 5] | Selectivity (HepG2 cells) | EC50 (HepG2 cells) | fraction unbound at 4 h, 10 µM [2, 6] | fraction unbound at 4 h, 10 µM [2, 7] | other results |
| --- | --- | --- | --- | --- | --- | --- | --- | --- |
| CNCCn1ccc2c(ccn2Cc2ccc(Cl)c(Cl)c2)c1=O [CTCB-435] | 0.12 µM | 0.111 µM and 0.127 µM |  |  |  |  |  |  |
| CN(C)CCn1ccc2c(ccn2Cc2ccc(F)c(Br)c2)c1=O [CTCB-508, 1-[(3-Bromo-4-fluorophenyl)methyl]-5-[2-(dimethylamino)ethyl] pyrrolo[3,2-c]pyridin-4-one] |  | 0.13 µM and 0.229 µM and 0.25 µM | 0.2 ± 0.05 µM | 111 | 33400 nM | 0.18 |  |  |
| CN(C)CCn1ccc2c(ccn2Cc2ccc(Cl)c(Br)c2)c1=O [CTCB-470, 1-[(3-Bromo-4-chlorophenyl)methyl]-5-[2-(dimethylamino)ethyl] pyrrolo[3,2-c]pyridin-4-one] | 0.21 µM | 0.137 µM and 0.154 µM and 0.209 µM and 0.359 µM |  | 39 | 12300 nM | 0.06 | 0.058 |  |
| CN(C)CCn1ccc2c(ccn2Cc2ccc(Cl)c(Cl)c2)c1=O [CTCB 405] |  |  |  |  |  |  |  | RLU, avg ([1]; Conc 0.00640146 uM): 39926.3 RLU; RLU, individual replicates ([1]; Conc 0.00640146 uM): 40029.2 RLU and 39823.3 RLU; RLU, avg ([1]; Conc 0.0192044 uM): 39977.3 RLU; RLU, individual replicates ([1]; Conc 0.0192044 uM): 42153.7 RLU and 37800.9 RLU; RLU, avg ([1]; Conc 0.0576132 uM): 34288.1 RLU; RLU, individual replicates ([1]; Conc 0.0576132 uM): 36858 RLU and 31718.2 RLU; RLU, avg ([1]; Conc 0.17284 uM): 23285 RLU; RLU, individual replicates ([1]; Conc 0.17284 uM): 25069.7 RLU and 21500.2 RLU; RLU, avg ([1]; Conc 0.518519 uM): 10488.4 RLU; RLU, individual replicates ([1]; Conc 0.518519 uM): 11745.9 RLU and 9230.85 RLU; RLU, avg ([1]; Conc 1.55556 uM): 4498.05 RLU; RLU, individual replicates ([1]; Conc 1.55556 uM): 4537.49 RLU and 4458.6 RLU; RLU, avg ([1]; Conc 4.66667 uM): 2709.41 RLU; RLU, individual replicates ([1]; Conc 4.66667 uM): 2899.92 RLU and 2518.91 RLU; RLU, avg ([1]; Conc 14 uM): 1717.44 RLU; RLU, individual replicates ([1]; Conc 14 uM): 1947.39 RLU and 1487.48 RLU |
| CN(C)CCn1ccc2c(ccn2Cc2ccc(Cl)c(Cl)c2)c1=O [CTCB-405, 1-[(3,4-Dichlorophenyl)methyl]-5-[2-(dimethylamino)ethyl] pyrrolo[3,2-c]pyridin-4-one] |  | 0.209 µM and 0.202 µM and 0.134 µM and 0.19 µM | 0.18 ± 0.03 µM | 56 | 20800 nM | 0.058 | 0.06 |  |
